ChEMBL document CHEMBL5291721, “A preclinical secondary pharmacology resource illuminates target-adverse drug reaction associations of marketed drugs” (Nat Commun, 2023)
Where “and” joins values, the source holds several entries; their conditions need not be identical. Equal values may be shown once.

Columns and labels:
Adenosine receptor A3 = target: T1, Adenosine receptor A3 (Homo sapiens, UniProt P0DMS8)
T1 sequence (P0DMS8 whole entry): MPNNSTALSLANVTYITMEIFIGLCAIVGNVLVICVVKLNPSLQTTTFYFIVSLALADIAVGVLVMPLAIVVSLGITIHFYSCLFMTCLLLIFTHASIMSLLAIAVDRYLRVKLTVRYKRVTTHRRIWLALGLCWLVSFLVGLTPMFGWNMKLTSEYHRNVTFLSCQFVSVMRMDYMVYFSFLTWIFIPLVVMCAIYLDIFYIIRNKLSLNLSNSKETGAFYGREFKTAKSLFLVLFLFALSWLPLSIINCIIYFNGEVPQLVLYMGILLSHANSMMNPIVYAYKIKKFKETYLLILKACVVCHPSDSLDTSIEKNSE

[1] = target: T2, Equilibrative nucleoside transporter 1 (Homo sapiens, UniProt Q99808)
T2 sequence (Q99808 whole entry): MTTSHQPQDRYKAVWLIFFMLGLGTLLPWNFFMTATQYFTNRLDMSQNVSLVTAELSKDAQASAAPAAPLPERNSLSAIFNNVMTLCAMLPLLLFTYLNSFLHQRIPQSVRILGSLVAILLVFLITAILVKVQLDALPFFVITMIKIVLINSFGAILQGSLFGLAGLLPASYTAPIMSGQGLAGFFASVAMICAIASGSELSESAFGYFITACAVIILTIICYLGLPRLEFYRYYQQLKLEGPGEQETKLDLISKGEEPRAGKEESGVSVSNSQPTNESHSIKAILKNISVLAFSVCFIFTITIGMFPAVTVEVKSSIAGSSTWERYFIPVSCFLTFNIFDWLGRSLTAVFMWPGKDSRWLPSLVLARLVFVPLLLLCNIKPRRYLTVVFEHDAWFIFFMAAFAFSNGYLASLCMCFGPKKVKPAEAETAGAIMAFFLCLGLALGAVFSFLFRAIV

Vasopressin V1a receptor = Vasopressin V1a receptor (Homo sapiens, UniProt P37288)
Chain of Vasopressin V1a receptor (P37288 whole entry): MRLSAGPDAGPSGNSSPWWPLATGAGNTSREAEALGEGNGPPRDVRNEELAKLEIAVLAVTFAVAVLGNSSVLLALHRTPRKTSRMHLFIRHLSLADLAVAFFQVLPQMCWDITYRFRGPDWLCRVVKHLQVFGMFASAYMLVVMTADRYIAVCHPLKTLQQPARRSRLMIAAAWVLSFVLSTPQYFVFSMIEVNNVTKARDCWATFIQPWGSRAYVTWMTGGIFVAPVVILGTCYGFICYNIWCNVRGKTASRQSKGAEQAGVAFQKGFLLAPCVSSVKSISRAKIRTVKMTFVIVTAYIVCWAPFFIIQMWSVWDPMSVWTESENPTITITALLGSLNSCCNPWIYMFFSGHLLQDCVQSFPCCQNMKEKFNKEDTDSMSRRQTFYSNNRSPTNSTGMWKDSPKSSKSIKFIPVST

Thromboxane A2 receptor = target: T3, Thromboxane A2 receptor (Homo sapiens, UniProt P21731)
T3 sequence (P21731 whole entry): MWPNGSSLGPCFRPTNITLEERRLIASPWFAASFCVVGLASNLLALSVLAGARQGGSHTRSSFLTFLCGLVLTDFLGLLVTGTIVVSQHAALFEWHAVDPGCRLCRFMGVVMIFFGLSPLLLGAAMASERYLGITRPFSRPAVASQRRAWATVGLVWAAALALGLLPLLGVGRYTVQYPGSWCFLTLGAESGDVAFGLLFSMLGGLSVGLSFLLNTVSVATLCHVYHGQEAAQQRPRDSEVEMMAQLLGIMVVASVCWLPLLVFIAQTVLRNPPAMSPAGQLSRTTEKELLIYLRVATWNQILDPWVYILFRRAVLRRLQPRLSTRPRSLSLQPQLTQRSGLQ

[2] = target: Kappa-type opioid receptor (Homo sapiens, UniProt P41145)
Chain of Kappa-type opioid receptor (P41145 whole entry): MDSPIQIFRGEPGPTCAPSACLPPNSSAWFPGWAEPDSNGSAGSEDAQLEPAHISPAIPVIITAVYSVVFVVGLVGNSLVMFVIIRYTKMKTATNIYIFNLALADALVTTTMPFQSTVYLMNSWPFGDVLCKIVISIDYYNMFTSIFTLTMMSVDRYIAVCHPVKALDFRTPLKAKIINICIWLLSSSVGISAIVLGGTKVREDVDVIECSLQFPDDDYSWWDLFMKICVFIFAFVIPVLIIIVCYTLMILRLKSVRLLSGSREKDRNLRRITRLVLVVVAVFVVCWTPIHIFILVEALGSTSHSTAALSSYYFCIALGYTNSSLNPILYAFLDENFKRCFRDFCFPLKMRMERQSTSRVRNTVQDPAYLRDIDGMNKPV

Progesterone receptor = target: T4, Progesterone receptor (Homo sapiens, UniProt P06401); assay type: functional
T4 sequence (P06401 whole entry): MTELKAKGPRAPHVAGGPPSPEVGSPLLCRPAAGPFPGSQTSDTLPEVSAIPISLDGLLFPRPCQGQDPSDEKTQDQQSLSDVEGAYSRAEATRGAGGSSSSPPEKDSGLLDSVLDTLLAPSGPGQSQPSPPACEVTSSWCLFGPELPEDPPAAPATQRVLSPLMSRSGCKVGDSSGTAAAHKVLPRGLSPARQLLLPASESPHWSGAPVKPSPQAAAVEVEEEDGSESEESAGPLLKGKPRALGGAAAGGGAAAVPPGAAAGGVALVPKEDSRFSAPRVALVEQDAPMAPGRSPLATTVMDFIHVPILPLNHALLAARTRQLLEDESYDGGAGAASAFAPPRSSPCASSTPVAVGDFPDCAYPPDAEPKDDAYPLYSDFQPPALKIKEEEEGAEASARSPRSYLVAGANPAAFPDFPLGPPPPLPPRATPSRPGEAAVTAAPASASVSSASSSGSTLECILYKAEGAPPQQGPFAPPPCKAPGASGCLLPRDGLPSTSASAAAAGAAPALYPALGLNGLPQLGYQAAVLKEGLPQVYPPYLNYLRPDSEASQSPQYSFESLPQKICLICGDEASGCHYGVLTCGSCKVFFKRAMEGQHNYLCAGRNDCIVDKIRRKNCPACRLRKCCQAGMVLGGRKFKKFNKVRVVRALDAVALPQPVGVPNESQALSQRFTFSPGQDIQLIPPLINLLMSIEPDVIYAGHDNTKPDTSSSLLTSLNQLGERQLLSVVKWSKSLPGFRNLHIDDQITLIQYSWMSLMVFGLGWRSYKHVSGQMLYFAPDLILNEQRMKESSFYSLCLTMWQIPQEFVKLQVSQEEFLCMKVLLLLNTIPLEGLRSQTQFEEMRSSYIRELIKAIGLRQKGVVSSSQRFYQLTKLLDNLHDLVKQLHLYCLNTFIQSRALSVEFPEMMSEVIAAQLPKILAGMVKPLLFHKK

[3] = target: T5, Alpha-2A adrenergic receptor (Homo sapiens, UniProt P08913); assay type: functional, cell-based
T5 sequence (P08913 whole entry): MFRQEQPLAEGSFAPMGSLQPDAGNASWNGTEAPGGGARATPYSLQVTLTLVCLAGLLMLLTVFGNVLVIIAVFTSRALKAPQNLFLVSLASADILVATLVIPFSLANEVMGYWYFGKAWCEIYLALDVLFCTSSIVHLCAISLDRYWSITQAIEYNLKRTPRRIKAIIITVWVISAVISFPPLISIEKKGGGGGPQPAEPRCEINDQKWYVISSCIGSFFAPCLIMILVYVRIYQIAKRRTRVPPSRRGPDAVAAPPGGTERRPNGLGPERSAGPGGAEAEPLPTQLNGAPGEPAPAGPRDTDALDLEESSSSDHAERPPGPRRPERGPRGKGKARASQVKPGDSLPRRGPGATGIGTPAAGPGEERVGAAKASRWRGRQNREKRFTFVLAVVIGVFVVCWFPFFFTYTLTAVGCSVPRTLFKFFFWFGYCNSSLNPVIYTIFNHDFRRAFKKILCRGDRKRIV
Note: assay procedure not described here.

Compound | AC50 (Adenosine receptor A3) | AC50 [1] [µM] | AC50 (Vasopressin V1a receptor) [µM] | AC50 (Thromboxane A2 receptor) [µM] | AC50 [2] [µM] | AC50 (Progesterone receptor) [µM] | AC50 [3] [µM]
C=CCC1(C(C)CC)C(=O)NC(=O)NC1=O (centres undefined) [TALBUTAL] | > 10 µM | > 10 | > 10 | > 10 | > 10 | > 10 | > 10
CC(C)Cn1cnc2c(N)nc3ccccc3c21 [IMIQUIMOD] | > 30 µM | > 30 |  | > 30 | > 10 | > 10 | > 10
Cc1cc(O)c(C(=O)N[C@@H](C(=O)N[C@@H]2C(=O)N3C(C(=O)O)=C(CSc4nnnn4C)CS[C@H]23)c2ccc(O)cc2)cn1 [CEFPIRAMIDE] | > 30 µM | > 30 | > 30 | > 30 | > 30 | > 30 | > 30
O=C(O)CCCCCCCC(=O)O [AZELAIC ACID] | > 10 µM | > 10 | > 10 | > 10 | > 10 | > 10 | > 10
COC(=O)C1=C(C)NC(C)=C(C(=O)OC(C)(C)CN(C)CCC(c2ccccc2)c2ccccc2)C1c1cccc([N+](=O)[O-])c1 (centres undefined) [LERCANIDIPINE] | 8.8 µM | > 30 | > 30 | > 30 | 3.8 | > 30 | > 30
C=CCC1(CC(C)C)C(=O)NC(=O)NC1=O [BUTALBITAL] | > 10 µM | > 10 | > 10 | > 10 | > 10 | > 10 | > 10
C[C@]12CC[C@H]3[C@@H](CCC4=CC(=O)CC[C@@]43C)[C@@H]1CC[C@@H]2O [TESTOSTERONE] | > 10 µM | > 10 |  | > 10 | > 10 | 0.092 | > 10
N#Cc1ccc([C@H]2CCc3cncn32)c(F)c1 [OSILODROSTAT] | > 10 µM | > 10 | > 10 | > 10 | > 10 |  | 
O=C(O)[C@H](CC(=O)N1C[C@H]2CCCC[C@H]2C1)Cc1ccccc1 [MITIGLINIDE] | > 10 µM | > 10 | > 10 | > 10 | > 10 | > 10 | > 10
CC(C(=O)O)c1ccc(N2Cc3ccccc3C2=O)cc1 (centres undefined) [INDOPROFEN] | > 30 µM | > 30 | > 30 | > 30 | > 30 | 16.8 | > 30
C#C[C@]1(O)CC[C@H]2[C@@H]3CCC4=Cc5oncc5C[C@]4(C)[C@H]3CC[C@@]21C [DANAZOL] | > 30 µM | > 10 |  | > 10 | > 10 | 0.019 | > 10
CCCN(CCC)C(=O)C(CCC(=O)O)NC(=O)c1ccccc1 (centres undefined) [PROGLUMIDE] | > 30 µM | > 30 | > 30 | > 30 | > 10 | > 30 | > 10
CO[C@@H]1[C@@H](O[C@@H]2O[C@H](C)[C@@H](O[C@H]3C[C@@](C)(O)[C@@H](OC(=O)CC(C)C)[C@H](C)O3)[C@H](N(C)C)[C@H]2O)[C@@H](CC=O)C[C@@H](C)[C@@H](O)/C=C/C=C/C[C@@H](C)OC(=O)C[C@H]1OC(C)=O [JOSAMYCIN] | > 10 µM | > 10 | > 10 | > 10 | > 10 | > 10 | > 10
Cc1cccc(C(C)c2cnc[nH]2)c1C (centres undefined) [MEDETOMIDINE] | > 30 µM | > 30 | > 30 | > 30 | > 30 | > 30 | 
O=C(NCCN1CCOCC1)c1ccc(Cl)cc1 [MOCLOBEMIDE] | > 10 µM | > 10 |  | > 10 | > 10 | > 10 | > 10
CNC(C)CCC=C(C)C (centres undefined) [ISOMETHEPTENE] | > 30 µM | > 30 | > 30 | > 30 |  | > 30 | 
Cc1ccc(S(=O)(=O)NC(=O)NN2CC3CCCC3C2)cc1 (centres undefined) [GLICLAZIDE] | > 10 µM | > 10 |  | > 10 | > 10 | > 10 | > 10
NCC[C@H](O)C(=O)N[C@@H]1C[C@H](N)[C@@H](O[C@H]2O[C@H](CN)[C@@H](O)[C@H](O)[C@H]2O)[C@H](O)[C@H]1O[C@H]1O[C@H](CO)[C@@H](O)[C@H](N)[C@H]1O [AMIKACIN] | > 10 µM | > 10 |  | > 10 | > 10 | > 10 | > 10
CCc1c(Cl)c(O)c(Cl)c(O)c1C(=O)O[C@H]1[C@H](O)[C@H](OC)[C@H](OC/C2=C\C=C\C[C@H](O)/C(C)=C/[C@H](CC)[C@@H](O[C@@H]3OC(C)(C)[C@@H](OC(=O)C(C)C)[C@H](O)[C@@H]3O)/C(C)=C/C(C)=C/C[C@@H]([C@@H](C)O)OC2=O)O[C@@H]1C [FIDAXOMICIN] | 17.1 µM and > 30 µM | 3.6 | > 10 | > 30 | > 10 | > 30 | 
C[C@](N)(Cc1ccc(O)c(O)c1)C(=O)O [METHYLDOPA] | > 30 µM | > 10 |  | > 10 | > 10 | > 30 | > 10
CC(C)(C)c1cc(C(C)(C)C)c(NC(=O)c2c[nH]c3ccccc3c2=O)cc1O [IVACAFTOR] | 2.3 µM | > 30 | > 30 | 22 | > 10 |  | > 10
CC(Oc1c(Cl)cccc1Cl)C1=NCCN1 (centres undefined) [LOFEXIDINE] | > 30 µM | > 30 | > 30 | > 30 | 22 | > 30 | 
